Source: patent publication US10669284B2, “Fused thiazolopyrimidine derivatives as MNKS inhibitors” (LIFEARC, priority 2015, dated 2020)

Legend:
[1] = target: T1, Full-length human MNK1 (Homo sapiens, UniProt Q9BUB5, T385D); test: MNK1 biochemical IC50 assay (Caliper Mobility Shift Assay); conditions: read-out: P(IC50) MNK1 (converted)
T1 construct: GST (N); purchased Carna Biosciences 02-145; host or cells: baculovirus expression system

[2] = target: T2, Full-length human MNK2 (Homo sapiens, UniProt Q9HBH9, T379D); test: MNK2 biochemical IC50 assay (Caliper Mobility Shift Assay); conditions: read-out: P(IC50) MNK2 (converted)
T2 construct: GST (N); purchased Carna Biosciences 02-146; host or cells: baculovirus expression system
T2 sequence (Q9HBH9 whole entry T379D): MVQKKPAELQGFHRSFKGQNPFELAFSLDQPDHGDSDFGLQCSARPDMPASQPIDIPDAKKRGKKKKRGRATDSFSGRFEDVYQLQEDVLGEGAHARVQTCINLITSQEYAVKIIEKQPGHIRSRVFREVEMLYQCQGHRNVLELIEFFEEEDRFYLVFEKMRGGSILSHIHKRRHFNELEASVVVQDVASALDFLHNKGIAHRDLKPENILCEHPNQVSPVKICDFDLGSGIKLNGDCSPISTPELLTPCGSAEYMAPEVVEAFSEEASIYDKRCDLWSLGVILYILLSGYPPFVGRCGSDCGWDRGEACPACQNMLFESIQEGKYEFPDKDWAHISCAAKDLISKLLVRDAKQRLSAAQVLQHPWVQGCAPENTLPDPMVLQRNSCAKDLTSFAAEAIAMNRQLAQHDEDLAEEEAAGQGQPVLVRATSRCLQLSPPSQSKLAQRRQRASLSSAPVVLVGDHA

[3] = system: phosphorylation of eIF4E at ser209 in MV4.11 cell line; test: MNK cellular activity phospho-eIF4E detection assay (Alphascreen Surefire); assay type: cell-based; conditions: Homo sapiens; MV4.11 cell line, phospho-eIF4E (ser209) Alphascreen Surefire; read-out: P(IC50) elF4E (converted)
Outline: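 AlphaScreen SureFire sandwich-immunoassay readout of phospho-eIF4E Ser209 in lysed MV4.11 cells; acceptor then donor beads, each 1.5 hr at room temperature. Signal normalised to untreated DMSO-only controls; duplicate curves, values averaged over at least 2 independent experiments.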

T1 sequence (Q9BUB5 1-424 isoform Q9BUB5-2 T344D): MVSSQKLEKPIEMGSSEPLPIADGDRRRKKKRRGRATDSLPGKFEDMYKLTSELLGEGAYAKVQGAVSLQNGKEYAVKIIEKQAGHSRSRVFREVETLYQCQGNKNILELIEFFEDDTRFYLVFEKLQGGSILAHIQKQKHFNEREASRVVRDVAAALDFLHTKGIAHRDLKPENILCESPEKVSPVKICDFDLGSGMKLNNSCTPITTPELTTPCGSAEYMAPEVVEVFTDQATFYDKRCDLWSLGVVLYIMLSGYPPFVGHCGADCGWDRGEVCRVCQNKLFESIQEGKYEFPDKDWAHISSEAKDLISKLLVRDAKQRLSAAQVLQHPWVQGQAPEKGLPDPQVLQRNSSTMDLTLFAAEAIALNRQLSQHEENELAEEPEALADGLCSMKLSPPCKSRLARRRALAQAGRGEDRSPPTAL

SMILES | IC50 [1] | IC50 [2] | IC50 [3]
CC1(CCO)CN(c2ncnc3sc(C(=O)NC4CCOCC4)nc23)c2ccccc21 (stereo not drawn) [Example 113, 7-[3-(2-hydroxyethyl)-3-methyl-indolin-1-yl]-N-tetrahydropyran-4-yl-thiazolo[5,4-d]pyrimidine-2-carboxamide] | 39.8 nM | 39.8 nM | 39.8 nM
O=C(Nc1nc2c(N3CCc4cc(F)ccc43)ncnc2s1)C1CCOC1 (stereo not drawn) [Example 84, N-(7-(5-Fluoroindolin-1-yl)thiazolo[5,4-d]pyrimidin-2-yl)tetrahydrofuran-3-carboxamide] | 3.98 nM | 5.01 nM | 50.1 nM
CC1(CO)CN(c2ncnc3sc(C(=O)NCC4CCNCC4)nc23)c2ccc(F)cc21 (stereo not drawn) [Example 141] | 3.16 nM | 5.01 nM | 20 nM
CC(C)Oc1cc(F)ccc1Nc1ncnc2sc(C(=O)N3CC4(CNC4)C3)nc12 [Example 7, 2,6-diazaspiro[3.3]heptan-2-yl-[7-(4-fluoro-2-isopropoxy-anilino)thiazolo[5,4-d]pyrimidin-2-yl]methanone] | 251 nM | 251 nM | 316 nM
O=C(NCC1CCNCC1)c1nc2c(N3CC(CO)c4ccccc43)ncnc2s1 (stereo not drawn) [Example 135, 7-[3-(Hydroxymethyl)indolin-1-yl]-N-(4-piperidylmethyl)thiazolo[5,4-d]pyrimidine-2-carboxamide] | 10 nM | 7.94 nM | 31.6 nM
CN(C)CCNc1nc2c(N3CCc4cc(F)ccc43)ncnc2s1 [Example 86] | 63.1 nM | 79.4 nM | 251 nM
CC(C)Oc1cc(F)ccc1Nc1ncnc2sc(C(=O)N3CCC(CN(C)C)CC3)nc12 [Example 35, {4-[(dimethylamino)methyl]piperidin-1-yl}(7-{[4-fluoro-2-(propan-2-yloxy)phenyl]amino}[1,3]thiazolo[5,4-d]pyrimidin-2-yl)methanone] | 158 nM | 200 nM | 316 nM
CNCCCNC(=O)c1nc2c(N3CCc4ccccc43)ncnc2s1 [Example 97, 7-indolin-1-yl-N-[3-(methylamino)propyl] thiazolo[5,4-d]pyrimidine-2-carboxamide] | 7.94 nM | 7.94 nM | 15.8 nM
CC(C)Oc1ccccc1Nc1ncnc2sc(C(=O)NCCCN(C)C)nc12 [Example 23, N-[3-(Dimethylamino)propyl]-7-(2-isopropoxyanilino)thiazolo[5,4-d]pyrimidine-2-carboxamide] | 100 nM | 63.1 nM | 63.1 nM
CN(C)CCNC(=O)c1nc2c(N3CCc4cc(F)ccc43)ncnc2s1 [Example 73, N-[2-(dimethylamino)ethyl]-7-(5-fluoroindolin-1-yl)thiazolo[5,4-d]pyrimidine-2-carboxamide] | 5.01 nM | 5.01 nM | 15.8 nM
O=C(NC1CCOCC1)c1nc2c(N3CCc4cc(C(F)(F)F)ccc43)ncnc2s1 [Example 112, N-(tetrahydro-2H-pyran-4-yl)-7-(5-(trifluoromethyl)indolin-1-yl)thiazolo[5,4-d]pyrimidine-2-carboxamide] | 200 nM | 126 nM | 316 nM
O=C(NCC1CCNCC1)c1nc2c(N3CCc4ccccc43)ncnc2s1 [Example 94, 7-Indolin-1-yl-N-(4-piperidylmethyl)thiazolo[5,4-d]pyrimidine-2-carboxamide] | 6.31 nM | 3.98 nM | 7.94 nM
CN(C)CCCNC(=O)c1nc2c(Nc3cccc4c3OCC4)ncnc2s1 [Example 26, 7-(2,3-Dihydrobenzofuran-7-ylamino)-N-[3-(dimethylamino)propyl]thiazolo[5,4-d]pyrimidine-2-carboxamide] | 1580 nM | 1580 nM | 1000 nM
O=C(NC1CCOCC1)c1nc2c(-n3ccc4ccccc43)ncnc2s1 [Example 117, 7-Indol-1-yl-N-tetrahydropyran-4-yl-thiazolo[5,4-d]pyrimidine-2-carboxamide] | 50.1 nM | 31.6 nM | 50.1 nM
CC(C)Oc1cc(F)ccc1Nc1ncnc2sc(C(=O)NC3CC4CCC(C3)N4)nc12 (stereo not drawn) [Example 5, N-(8-azabicyclo[3.2.1]octan-3-yl)-7-(4-fluoro-2-isopropoxy-anilino)thiazolo[5,4-d]pyrimidine-2-carboxamide] | 158 nM | 79.4 nM | 100 nM
CCOc1cc(F)ccc1Nc1ncnc2sc(C(=O)NCC3CCNCC3)nc12 [Example 53, 7-(2-ethoxy-4-fluoro-anilino)-4-(4-piperidylmethyl)thiazolo[5,4-d]pyrimidine-2-carboxamide] | 100 nM | 126 nM | 126 nM
CNCCCNC(=O)c1nc2c(Nc3ccc(F)cc3OC(C)C)ncnc2s1 [Example 29, 7-{[4-Fluoro-2-(propan-2-yloxy)phenyl]amino}-N-[3-(methylamino)propyl][1,3]thiazolo[5,4-d]pyrimidine-2-carboxamide] | 63.1 nM | 50.1 nM | 39.8 nM

The next lines start with the values.

IC50 [1] | IC50 [2] | IC50 [3] | SMILES
15.8 nM | 15.8 nM | 10 nM | CC(C)(O)CC1CN(c2ncnc3sc(C(=O)NCC4CCNCC4)nc23)c2ccccc21 (stereo not drawn) [Example 142]
398 nM | 316 nM | 200 nM | O=C(NCC1CCNCC1)c1nc2c(N3c4ccccc4C[C@@H]3CO)ncnc2s1 [Example 138]
79.4 nM | 79.4 nM | 251 nM | CN1CCN(C(=O)c2nc3c(N4CCc5cc(F)ccc54)ncnc3s2)CC1 [Example 65, [7-(5-fluoroindolin-1-yl)thiazolo[5,4-d]pyrimidin-2-yl]-(4-methylpiperazin-1-yl)methanone]
100 nM | 79.4 nM | 79.4 nM | CC(C)Oc1cc(F)ccc1Nc1ncnc2sc(C(=O)NC3CCOCC3)nc12 [Example 33, 7-{[4-fluoro-2-(propan-2-yloxy)phenyl]amino}-N-(tetrahydro-2H-pyran-4-yl)[1,3]thiazolo[5,4-d]pyrimidine-2-carboxamide]
126 nM | 79.4 nM | 50.1 nM | CN1CCN(CCC2CN(c3ncnc4sc(C(=O)NC5CCOCC5)nc34)c3ccccc32)CC1 (stereo not drawn) [Example 155, 7-[3-[2-(4-methylpiperazin-1-yl)ethyl]indolin-1-yl]-N-tetrahydropyran-4-yl-thiazolo[5,4-d]pyrimidine-2-carboxamide]
158 nM | 79.4 nM | 398 nM | CC(C)Oc1cc(F)ccc1Nc1ncnc2sc(C(=O)NCCC(=O)O)nc12 [Example 14, 3-[[7-(4-fluoro-2-isopropoxy-anilino)thiazolo[5,4-d]pyrimidine-2-carbonyl]amino]propanoic acid]
10 nM | 12.6 nM | 31.6 nM | CC(C)[C@@H](CO)NC(=O)c1nc2c(N3CCc4ccccc43)ncnc2s1 [Example 101, N-[(1S)-1-(hydroxymethyl)-2-methyl-propyl]-7-indolin-1-yl-thiazolo[5,4-d]pyrimidine-2-carboxamide]
126 nM | 100 nM | 501 nM | O=C(NCC1CCNCC1)c1nc2c(N3CCc4cc(C(F)(F)F)ccc43)ncnc2s1 [Example 145]
6.31 nM | 6.31 nM | 7.94 nM | CC1(C)CN(c2ncnc3sc(C(=O)NCCCN4CCCC4)nc23)c2ccccc21 [Example 160]
